Test results reported in US12616712B2 (LONZA SALES AG, priority 2019, dated 2026).

Test system: GL261-Luc glioblastoma multiforme
Experiment: syngeneic GL261-Luc glioblastoma multiforme model
Type: in vivo
Settings: mice, control groups, FIG. 7A
Protocol: The efficacy of exoSTING treatment in a syngeneic GL261-Luc glioblastoma multiforme model was assessed. Briefly, 5×10^5 GL261-LUC cells were administered via a 10 μl intra-striatal stereotactic injection to the mice. Tumor presence was confirmed by T1-weighted (T1W) MRI scan 15 days later. Four days after the MRI scan, when tumors were approximately 80-100 mm^3, stereotactic coordinates were used to administer 5 μl (˜120 ng) ExoSTING every 72 hours for 3 total injections to some of the animals. […] Anti-PDL-1 mAb was dosed twice weekly for 2 weeks (IOmpk IV). Phosphate buffered saline (PBS) alone and Temozolomide (TMZ) alone were dosed twice weekly for 2 weeks (30mpk IP). Mice were then followed for survival end-point.

SMILES: Cn1nnc2c(C(N)=O)ncn2c1=O [Temozolamide]
- survival: all animals succumbed to the tumor by day post tumor induction: ~40 days
